# According to patent US9416111B2, “Substituted diazine and triazine spleen tyrosine kinease (Syk) inhibitors” (Merck Sharp & Dohme Corp., priority 2012, dated 2016):
# Target: T1, recombinant human GST-SYK (Homo sapiens, UniProt P43405)
# T1 construct: purchased Carna Biosciences 08-176
# Experiment: Homogeneous Time-Resolved Fluorescence (HTRF) assay for the recombinant human Syk enzyme
# Assay type: biochemical
# Conditions: GST-hSYK 5 pM, ATP 25 μM, IC50 rated in classes, read-out: rhSYK Activity
# Description: Homogeneous Time-Resolved Fluorescence (HTRF) Assay for the Recombinant Human Syk Enzyme
# A recombinant GST-hSYK fusion protein was used to measure potency of compounds to inhibit human Syk activity. The recombinant human GST-SYK (Carna Biosciences #08-176) (5 pM final concentration) was incubated with various concentrations of the inhibitor diluted in DMSO (0.1% final concentration) for 10 minutes at room temperature in 15 mM Tris-HCl (pH 7.5), 0.01% tween 20, 2 mM DTT in 384 well plate format. To initiate the reaction the biotinylated substrate peptide (250 nM final concentration) that contains the phosphorylation site for Syk was added with magnesium (5 mM final concentration) and ATP (25 μM final concentration). Final volume of the reaction was 10 μL. Phosphorylation of the peptide was allowed to proceed for 45′ at room temperature. To quench the reaction and detect the phosphorylated product, 2 nM of a Europium-anti-phosphotyrosine antibody (Perkin Elmer #AD0161) and 70 nM SA-APC (Perkin-Elmer #CR130-100) were added together in 15 mM Tris pH 7.5, 40 mM EDTA, 0.01% tween 20. Final volume of the quenching solution was 10 μL. The resulting HTRF signal was measured after 30 minutes on an EnVision (Perkin-Elmer) reader using a time-resolved fluorescence protocol.
row,Structure (SMILES),IC50 [nM]
1,"Cc1cc(Nc2nccc(C(F)(F)F)n2)cc(-c2cnc(NCCC(N)=O)nc2)c1 [Example 2.39, N~3~-[5-(3-methyl-5-{[4-(trifluoromethyl)pyrimidin-2-yl]amino}phenyl)pyrimidin-2-yl]-beta-alaninamide]",< 100
2,"CC(=O)N1CCN(c2ncc(-c3cc(C)cc(Nc4nccc(C(F)(F)F)n4)c3)cn2)CC1 [Example 2.40, N-{3-[2-(4-acetylpiperazin-1-yl)pyrimidin-5-yl]-5-methylphenyl}-4-(trifluoromethyl)pyrimidin-2-amine]",< 100
3,"Cc1cc(Nc2nccc(C(F)(F)F)n2)cc(-c2cnc(NC3CCCCNC3=O)nc2)c1 (centres unmarked) [Example 2.42, 3-{[5-(3-methyl-5-{[4-(trifluoromethyl)pyrimidin-2-yl]amino}phenyl)pyrimidin-2-yl]amino}azepan-2-one]",< 100
4,"Cc1cc(Nc2nccc(C(F)(F)F)n2)cc(-c2cnc(N(C)CC(O)CO)nc2)c1 (centres unmarked) [Example 2.43, 3-{methyl[5-(3-methyl-5-{[4-(trifluoromethyl)pyrimidin-2-yl]amino}phenyl)pyrimidin-2-yl]amino}propane-1,2-diol]",< 100
5,"CNC(=O)CNc1ncc(-c2cc(C)cc(Nc3nccc(C(F)(F)F)n3)c2)cn1 [Example 2.44, N-methyl-N~2~-[5-(3-methyl-5-{[4-(trifluoromethyl)pyrimidin-2-yl]amino}phenyl)pyrimidin-2-yl]glycinamide]",< 100
6,"Cc1cc(Nc2nccc(C(F)(F)F)n2)cc(-c2cnc(N(C)CCC3OCCO3)nc2)c1 [Example 2.45, N-[2-(1,3-dioxolan-2-yl)ethyl]-N-methyl-5-(3-methyl-5-{[4-(trifluoromethyl)pyrimidin-2-yl]amino}phenyl)pyrimidin-2-amine]",< 100
7,"Cc1cc(Nc2nccc(C(F)(F)F)n2)cc(-c2cnc(N3CCNC(=O)C3)nc2)c1 [Example 2.46, 4-[5-(3-methyl-5-{[4-(trifluoromethyl)pyrimidin-2-yl]amino}phenyl)pyrimidin-2-yl]piperazin-2-one]",< 100
8,"Cc1cc(Nc2nccc(C(F)(F)F)n2)cc(-c2cnc(NCC(C)(C)O)nc2)c1 [Example 2.47, 2-methyl-1-{[5-(3-methyl-5-{[4-(trifluoromethyl)pyrimidin-2-yl]amino}phenyl)pyrimidin-2-yl]amino}propan-2-ol]",< 100
9,"Cc1cc(Nc2nccc(C(F)(F)F)n2)cc(-c2cnc(NCCS(C)(=O)=O)nc2)c1 [Example 2.48, N-[3-methyl-5-(2-{[2-(methylsulfonyl)ethyl]amino}pyrimidin-5-yl)phenyl]-4-(trifluoromethyl)pyrimidin-2-amine]",< 100
10,"COCC1CCCCN1c1ncc(-c2cc(C)cc(Nc3nccc(C(F)(F)F)n3)c2)cn1 (centres unmarked) [Example 2.49, N-(3-{2-[2-(methoxymethyl)piperidin-1-yl]pyrimidin-5-yl}-5-methylphenyl)-4-(trifluoromethyl)pyrimidin-2-amine]",100 to 1000
11,"Cc1cc(Nc2nccc(C(F)(F)F)n2)cc(-c2cnc(N3CC(O)C3)nc2)c1 [Example 2.50, 1-[5-(3-methyl-5-{[4-(trifluoromethyl)pyrimidin-2-yl]amino}phenyl)pyrimidin-2-yl]azetidin-3-ol]",< 100
12,"CCC1C(=O)NCCN1c1ncc(-c2cc(C)cc(Nc3nccc(C(F)(F)F)n3)c2)cn1 (centres unmarked) [Example 2.51, 3-ethyl-4-[5-(3-methyl-5-{[4-(trifluoromethyl)pyrimidin-2-yl]amino}phenyl)pyrimidin-2-yl]piperazin-2-one]",< 100
13,"Cc1cc(Nc2nccc(C(F)(F)F)n2)cc(-c2cnc(NCc3cncn3C)nc2)c1 [Example 2.52, N-[3-methyl-5-(2-{[(1-methyl-1H-imidazol-5-yl)methyl]amino}pyrimidin-5-yl)phenyl]-4-(trifluoromethyl)pyrimidin-2-amine]",< 100
14,"CCCOC1CCCN(c2ncc(-c3cc(C)cc(Nc4nccc(C(F)(F)F)n4)c3)cn2)C1 (centres unmarked) [Example 2.53, N-{3-methyl-5-[2-(3-propoxypiperidin-1-yl)pyrimidin-5-yl]phenyl}-4-(trifluoromethyl)pyrimidin-2-amine]",100 to 1000
15,"Cc1cc(Nc2nccc(C(F)(F)F)n2)cc(-c2cnc(N3CCC3C(=O)O)nc2)c1 (centres unmarked) [Example 2.54, 1-[5-(3-methyl-5-{[4-(trifluoromethyl)pyrimidin-2-yl]amino}phenyl)pyrimidin-2-yl]azetidine-2-carboxylic acid]",< 100
16,"CCN1CCN(c2ncc(-c3cc(C)cc(Nc4nccc(C(F)(F)F)n4)c3)cn2)CC1 [Example 2.55, N-{3-[2-(4-ethylpiperazin-1-yl)pyrimidin-5-yl]-5-methylphenyl}-4-{trifluoromethyl)pyrimidin-2-amine]",< 100

row,Structure (SMILES),IC50 [nM]
1,"Cc1cc(Nc2nccc(C(F)(F)F)n2)cc(-c2cnc(N3CCCC[C@H]3C(=O)O)nc2)c1 [Example 2.56, (2S)-1-[5-(3-methyl-5-{[4-(trifluoromethyl)pyrimidin-2-yl]amino}phenyl)pyrimidin-2-yl]piperidine-2-carboxylic acid]",< 100
2,"Cc1cc(Nc2nccc(C(F)(F)F)n2)cc(-c2cnc(NC(C)(C)CO)nc2)c1 [Example 2.57, 2-methyl-2-{[5-(3-methyl-5-{[4-(trifluoromethyl)pyrimidin-2-yl]amino}phenyl)pyrimidin-2-yl]amino}propan-1-ol]",< 100
3,"Cc1cc(Nc2nccc(C(F)(F)F)n2)cc(-c2cnc(NC(C)CO)nc2)c1 (centres unmarked) [Example 2.58, 2-{[5-(3-methyl-5-{[4-(trifluoromethyl)pyrimidin-2-yl]amino}phenyl)pyrimidin-2-yl]amino}propan-1-ol]",< 100
4,"CCC(CO)Nc1ncc(-c2cc(C)cc(Nc3nccc(C(F)(F)F)n3)c2)cn1 (centres unmarked) [Example 2.59, 2-{[5-(3-methyl-5-{[4-(trifluoromethyl)pyrimidin-2-yl]amino}phenyl)pyrimidin-2-yl]amino}butan-1-ol]",< 100
5,"Cc1cc(Nc2nccc(C(F)(F)F)n2)cc(-c2cnc(NCC(C)O)nc2)c1 (centres unmarked) [Example 2.60, 1-{[5-(3-methyl-5-{[4-(trifluoromethyl)pyrimidin-2-yl]amino}phenyl)pyrimidin-2-yl]amino}propan-2-ol]",< 100
6,Cc1cc(Nc2nccc(C(F)(F)F)n2)cc(-c2cnc(NCC(O)CC(=O)O)nc2)c1 (centres unmarked) [Example 2.61],< 100
7,"Cc1cc(Nc2nccc(C(F)(F)F)n2)cc(-c2cnc(NCCO)nc2)c1 [Example 2.62, 2-{[5-(3-methyl-5-{[4-(trifluoromethyl)pyrimidin-2-yl]amino}phenyl)pyrimidin-2-yl]amino}ethanol]",< 100
8,"Cc1cc(Nc2nccc(C(F)(F)F)n2)cc(-c2cnc(NCc3cn(C)cn3)nc2)c1 [Example 2.63, N-[3-methyl-5-(2-{[(1-methyl-1H-imidazol-4-yl)methyl]amino}pyrimidin-5-yl)phenyl]-4-(trifluoromethyl)pyrimidin-2-amine]",< 100
9,"Cc1cc(Nc2nccc(C(F)(F)F)n2)cc(-c2cnc(NCC(=O)N(C)C)nc2)c1 [Example 2.64, N,N-dimethyl-N~2~-[5-(3-methyl-5-{[4-(trifluoromethyl)pyrimidin-2-yl]amino}phenyl)pyrimidin-2-yl]glycinamide]",< 100
10,"Cc1cc(Nc2nccc(C(F)(F)F)n2)cc(-c2cnc(N3CCN(CC(F)(F)F)CC3)nc2)c1 [Example 2.65, N-(3-methyl-5-{2-[4-(2,2,2-trifluoroethyl)piperazin-1-yl]pyrimidin-5-yl}phenyl)-4-(trifluoromethyl)pyrimidin-2-amine]",100 to 1000
11,"COCC1CCN(c2ncc(-c3cc(C)cc(Nc4nccc(C(F)(F)F)n4)c3)cn2)C1 (centres unmarked) [Example 2.66, N-(3-{2-[3-(methoxymethyl)pyrrolidin-1-yl]pyrimidin-5-yl}-5-methylphenyl)-4-(trifluoromethyl)pyrimidin-2-amine]",100 to 1000
12,"Cc1cc(Nc2nccc(C(F)(F)F)n2)cc(-c2cnc(N3CCN(C)C(=O)C3C)nc2)c1 (centres unmarked) [Example 2.67, 1,3-dimethyl-4-[5-(3-methyl-5-{[4-(trifluoromethyl)pyrimidin-2-yl]amino}phenyl)pyrimidin-2-yl]piperazin-2-one]",< 100
13,"CCCN1CCCN(c2ncc(-c3cc(C)cc(Nc4nccc(C(F)(F)F)n4)c3)cn2)CC1 [Example 2.68, N-{3-methyl-5-[2-(4-propyl-1,4-diazepan-1-yl)pyrimidin-5-yl]phenyl}-4-(trifluoromethyl)pyrimidin-2-amine]",< 100
14,"CNC(=O)CCNc1ncc(-c2cc(C)cc(Nc3nccc(C(F)(F)F)n3)c2)cn1 [Example 2.69, N-methyl-N~3~-[5-(3-methyl-5-{[4-(trifluoromethyl)pyrimidin-2-yl]amino}phenyl)pyrimidin-2-yl]-beta-alaninamide]",< 100
15,"CC(=O)NCCCNc1ncc(-c2cc(C)cc(Nc3nccc(C(F)(F)F)n3)c2)cn1 [Example 2.71, N-(3-{[5-(3-methyl-5-{[4-(trifluoromethyl)pyrimidin-2-yl]amino}phenyl)pyrimidin-2-yl]amino}propyl)acetamide]",< 100
16,"Cc1cc(Nc2nccc(C(F)(F)F)n2)cc(-c2cnc(N[C@@H]3CCC(=O)NC3)nc2)c1 [Example 2.72, (5R)-5-{[5-(3-methyl-5-{[4-(trifluoromethyl)pyrimidin-2-yl]amino}phenyl)pyrimidin-2-yl]amino}piperidin-2-one]",< 100
